Experimental data published in ChEMBL document CHEMBL2057096, “Discovery of novel 1,2,4-thiadiazole derivatives as potent, orally active agonists of sphingosine 1-phosphate receptor subtype 1 (S1P(1))” (J Med Chem, 2012).
In brackets after ≈: the same amount, converted by molar mass. Activity calls are given as the source filed them. The calls are words filed in the database; no cut-off is given here.

Legend:
[1] = target: Sphingosine 1-phosphate receptor 1 (Homo sapiens, UniProt P21453); test: Agonist activity against S1P1 receptor by cell based FRET assay; format: functional
Sequence of Sphingosine 1-phosphate receptor 1 (P21453 whole entry): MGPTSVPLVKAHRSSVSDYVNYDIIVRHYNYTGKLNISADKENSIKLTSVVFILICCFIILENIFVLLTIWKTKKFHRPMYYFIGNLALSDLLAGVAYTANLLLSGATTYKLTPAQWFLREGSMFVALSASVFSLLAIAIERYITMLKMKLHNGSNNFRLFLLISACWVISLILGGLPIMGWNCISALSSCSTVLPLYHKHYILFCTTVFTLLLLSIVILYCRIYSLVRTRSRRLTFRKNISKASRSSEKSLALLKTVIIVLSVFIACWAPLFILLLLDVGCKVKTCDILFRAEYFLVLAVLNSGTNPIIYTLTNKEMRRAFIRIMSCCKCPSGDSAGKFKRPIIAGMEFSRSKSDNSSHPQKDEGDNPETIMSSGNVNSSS

[2] = Percentage unbound in human plasma; format: ADME, cell-free
Cytochrome P450 2C9 = Cytochrome P450 2C9 (Homo sapiens, UniProt P11712); test: Inhibition of CYP2C9; format: ADME
Sequence of Cytochrome P450 2C9 (P11712 whole entry): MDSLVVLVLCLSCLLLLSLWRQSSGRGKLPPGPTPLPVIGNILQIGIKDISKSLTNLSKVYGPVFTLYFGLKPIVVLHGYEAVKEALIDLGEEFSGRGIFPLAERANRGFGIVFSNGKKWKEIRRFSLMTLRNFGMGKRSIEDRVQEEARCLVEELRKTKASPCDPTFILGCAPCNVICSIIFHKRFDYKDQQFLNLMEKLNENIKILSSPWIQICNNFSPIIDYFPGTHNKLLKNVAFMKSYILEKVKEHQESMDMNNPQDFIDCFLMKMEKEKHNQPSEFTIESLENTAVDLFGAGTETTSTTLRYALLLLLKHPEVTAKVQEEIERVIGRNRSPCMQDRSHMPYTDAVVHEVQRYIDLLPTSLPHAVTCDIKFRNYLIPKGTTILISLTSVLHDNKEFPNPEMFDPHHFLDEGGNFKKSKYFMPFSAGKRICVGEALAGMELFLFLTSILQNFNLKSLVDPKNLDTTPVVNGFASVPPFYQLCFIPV

[3] = Solubility of the compound; format: physicochemical
[4] = target: Sphingosine 1-phosphate receptor 3 (Homo sapiens, UniProt Q99500); test: Agonist activity against S1P3 receptor by cell based FRET assay; format: functional
Sequence of Sphingosine 1-phosphate receptor 3 (Q99500 whole entry): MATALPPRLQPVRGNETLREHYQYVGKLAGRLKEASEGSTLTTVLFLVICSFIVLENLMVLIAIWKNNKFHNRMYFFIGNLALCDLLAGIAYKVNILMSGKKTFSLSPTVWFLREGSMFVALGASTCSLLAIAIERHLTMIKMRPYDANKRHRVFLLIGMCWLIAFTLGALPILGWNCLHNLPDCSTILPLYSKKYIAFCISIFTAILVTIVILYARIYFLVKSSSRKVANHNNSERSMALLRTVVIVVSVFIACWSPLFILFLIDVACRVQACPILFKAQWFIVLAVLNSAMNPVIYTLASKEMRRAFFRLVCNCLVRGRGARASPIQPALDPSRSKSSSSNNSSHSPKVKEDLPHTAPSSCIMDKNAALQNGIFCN

[5] = Ratio of drug level in brain to blood in C57BL/6 mouse at 2 mg/kg, ip after 4 hrs; format: ADME, organism-based; design: dose 2 mg/kg, route intraperitoneal
[6] = Percentage unbound in rat plasma; format: ADME, cell-free
[7] = Ratio of drug level in brain to blood in C57BL/6 mouse at 2 mg/kg, ip after 1 hr; format: ADME, organism-based; design: dose 2 mg/kg, route intraperitoneal
[8] = Permeability of the compound; format: ADME; details: not told; read-out: permeability
Homo sapiens = species on record: Homo sapiens; test: Selectivity ratio of EC50 for S1P3 receptor to EC50 for S1P1 receptor
Mus musculus [9] = test: Decrease in lymphocyte count in mouse acute lymphopenia model at 1 mg/kg, po after 24 hrs by flow cytometry relative to base line; format: functional; design: scale not given: the % may be the effect or the level left
[10] = Oral bioavailability in mouse; format: ADME, organism-based; details: in vivo
[11] = Half life in mouse; format: ADME, organism-based; details: in vivo
Mus musculus [12] = test: Decrease in lymphocyte count in mouse acute lymphopenia model at 1 mg/kg, po after 4 hrs by flow cytometry relative to base line; format: functional; design: scale not given: the % may be the effect or the level left
Cytochrome P450 2D6 = Cytochrome P450 2D6 (Homo sapiens, UniProt P10635); test: Inhibition of CYP2D6; format: ADME
Sequence of Cytochrome P450 2D6 (P10635 whole entry): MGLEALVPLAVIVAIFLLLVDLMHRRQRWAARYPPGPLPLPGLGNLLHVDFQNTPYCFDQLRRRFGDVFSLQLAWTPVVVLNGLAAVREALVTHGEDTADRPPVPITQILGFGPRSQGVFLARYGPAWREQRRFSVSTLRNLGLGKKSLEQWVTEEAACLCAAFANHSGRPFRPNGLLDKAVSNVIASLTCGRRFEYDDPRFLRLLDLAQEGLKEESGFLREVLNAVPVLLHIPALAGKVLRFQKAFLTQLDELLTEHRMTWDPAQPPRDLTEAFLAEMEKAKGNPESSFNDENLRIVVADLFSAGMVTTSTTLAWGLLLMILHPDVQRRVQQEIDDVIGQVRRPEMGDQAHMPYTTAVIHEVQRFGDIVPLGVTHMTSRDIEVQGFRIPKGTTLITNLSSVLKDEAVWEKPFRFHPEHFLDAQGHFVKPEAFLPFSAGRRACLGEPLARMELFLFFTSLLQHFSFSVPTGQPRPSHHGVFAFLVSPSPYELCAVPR

Mus musculus [13] = test: Antiinflammatory activity in C57BL/6 mouse EAE model assessed as decrease in clinical symptoms at 1 mg/kg, po administered qd after 10 days post immunization; format: functional, organism-based; design: dose 1 mg/kg
[14] = AUC (0 to 24 hrs) in mouse; format: ADME, organism-based; design: time < 24 hr; details: plasma

Row | EC50 [1] [nM] | fraction unbound [2] | EC50 [4] [nM] | Compound | also measured
1 | 2510 | – | – | CCc1c(CCCC(=O)O)cccc1-c1ccn(-c2ccc(OC(C)C)c(C#N)c2)n1 | –
2 | 31.6 | – | – | CCc1c(CCCC(=O)O)cccc1-c1ccc(-c2ccc(OC(C)C)c(C#N)c2)cn1 | –
3 | 1.26 | 0.0003 | – | CCc1c(CCCC(=O)O)cccc1-c1nsc(-c2ccc(CC(C)C)c(C#N)c2)n1 | –
4 | 3.98 | – | > 10000 | CCc1c(CCCC(=O)O)cccc1-c1ccc(-c2ccc(OC(C)C)c(C#N)c2)s1 | IC50 (Cytochrome P450 2C9): 1580 nM; solubility [3]: 115 µg/mL (≈ 265 µM); Kp at 4 h [5]: 1.5; fraction unbound [6]: 0.0002; Kp at 1 h [7]: 1; Papp [8]: 30 ×10⁻⁶ cm/s
5 | 0.0158 | 0.0013 | > 3160 | CCc1c(CCNCC(=O)O)cccc1-c1nsc(-c2ccc(OC(C)C)c(C(F)(F)F)c2)n1 | Ratio EC50 (Homo sapiens): > 1000
6 | 1580 | 0.00017 | > 10000 | CCc1c(CCN2CCCCC2)cccc1-c1nsc(-c2ccc(CC(C)C)c(C#N)c2)n1 | –
7 | 5.01 | – | – | CCc1c(CCCC(=O)O)cccc1-c1cc(-c2ccc(OC(C)C)c(C#N)c2)no1 | –
8 | 100 | 4e-05 | > 10000 | CCc1c(CN(C)C(C)(C)C(=O)O)cccc1-c1nsc(-c2ccc(OC(C)C)c(C(F)(F)F)c2)n1 | Ratio EC50 (Homo sapiens): > 1000
9 | 31.6 | – | – | CCc1c(CCCC(=O)O)cccc1-c1ccc(-c2ccc(OC(C)C)c(C#N)c2)nc1 | –
10 | 5.01 | 0.00031 | – | CCc1c(CCCC(=O)O)cccc1-c1nsc(-c2cnc(OC(C)C)c(C(F)(F)F)c2)n1 | –
11 | 15.8 | – | > 10000 | CCc1c(CN2CCC(C(=O)O)CC2)cccc1-c1nsc(-c2ccc(OC(C)C)c(C(F)(F)F)c2)n1 | fraction unbound [6]: 0.0038; Ratio EC50 (Homo sapiens): > 1000
12 | 126 | – | – | CCc1c(CCCC(=O)O)cccc1-c1nsc(-c2ccc(N3CCOCC3)c(C(F)(F)F)c2)n1 | fraction unbound [6]: 0.0006
13 | 2 | 1e-05 | – | CCc1c(CCCC(=O)O)cccc1-c1nsc(-c2ccc(N3CCCCC3)c(C(F)(F)F)c2)n1 | –
14 | > 3160 | – | – | CCc1c(CCCC(=O)O)cccc1-c1cccc(-c2ccc(OC(C)C)c(C#N)c2)n1 | –
15 | 398 | 0.0014 | – | CCc1c(CCCC(=O)O)cncc1-c1nsc(-c2ccc(CC(C)C)c(C#N)c2)n1 | –
16 | > 3160 | – | – | CCc1c(CCCC(=O)O)cccc1-c1nsc(-c2ccc(N3CCN(C)CC3)c(C(F)(F)F)c2)n1 | fraction unbound [6]: 0.0032
17 | 0.251 | 0.0067 | > 3160 | CCc1c(CCN2CC(C(=O)O)C2)cccc1-c1nsc(-c2ccc(OC(C)C)c(Cl)c2)n1 | Ratio EC50 (Homo sapiens): > 1000
18 | 1.26 | – | – | CCc1c(CCCC(=O)O)cccc1-c1nc(-c2ccc(OC(C)C)c(C#N)c2)ns1 | –
19 | 1 | 0.0019 | > 10000 | CCc1c(CCCC(=O)O)cccc1-c1cnc(-c2ccc(OC(C)C)c(C#N)c2)nc1 | Activity (Mus musculus [9]): 103.2%; bioavailability [10]: 78%; solubility [3]: 161 µg/mL (≈ 375 µM); half-life [11]: 8 h; Kp at 4 h [5]: 0.48; Activity (Mus musculus [12]): 34.9%; IC50 (Cytochrome P450 2D6): 6310 nM; Activity (Mus musculus [13]): Active; Kp at 1 h [7]: 0.47; AUC(0-t) at 24 h [14]: 11500 ng·h/mL; Papp [8]: 19 ×10⁻⁶ cm/s
20 | > 10000 | – | – | CCc1c(CCCC(=O)O)cccc1-c1cc(-c2ccc(OC(C)C)c(C#N)c2)n[nH]1 | –
21 | 200 | 0.00091 | > 3160 | CCc1c(CCN2CC(O)C2)cccc1-c1nsc(-c2ccc(CC(C)C)c(C#N)c2)n1 | –
22 | > 3160 | – | – | CCc1c(CCCC(=O)O)cccc1-c1ccnc(-c2ccc(OC(C)C)c(C#N)c2)n1 | –
23 | 3.16 | 0.001 | > 10000 | CCc1c(CCCC(=O)O)cccc1-c1cnc(-c2ccc(OC(C)C)c(C#N)c2)s1 | IC50 (Cytochrome P450 2C9): 3980 nM; Activity (Mus musculus [9]): 62.6%; bioavailability [10]: 100%; solubility [3]: 125 µg/mL (≈ 288 µM); half-life [11]: 3.6 h; Kp at 4 h [5]: 0.35; Activity (Mus musculus [12]): 15.3%; Activity (Mus musculus [13]): inactive; Kp at 1 h [7]: 0.38; AUC(0-t) at 24 h [14]: 8340 ng·h/mL; Papp [8]: 22 ×10⁻⁶ cm/s
